{
  "source": "patent US8889112B2",
  "about": "“Ophthalmic formulations including selective alpha 1 antagonists” (Ocularis Pharma, LLC, priority 1999, dated 2014)",
  "key": {"human eye [1]": {"tested_on": "human eye", "settings": "for Effectiveness in reducing pupil dilation in dim light: topical, phenoxybenzamine, prazosin, tolamine 0.1% to 5%, labetalol S,S and S,R isomers 0.1% to 2%; for Duration of effect: single administration per day, eye drop or drop on soft contact lens", "experimental": "A preferred concentration of about 1 to about 5 milligrams of active agent per cc of total formulation volume in an embodiment may be administered by placing a single drop on a moist soft contact lens, and inserting the lens for about 15 minutes to about 45 minutes at one time per day. […] The drop may be administered in a one to five milligram per cc concentration directly to the eye as a recommended daily or BID dosing according to an embodiment of the present invention.\nA 5 mg/ml vial of phentolamine was diluted in an artificial tear formulation to approximately 6.0 cc of solution.\nLabetalol, a potent beta adrenergic receptor antagonist, consists of four isomers, two of which have some alpha 1 antagonist activity."}, "human eye [2]": {"tested_on": "human eye", "test": "Effect of alpha adrenergic receptor antagonists on pupil dilation (Table 1, patients)", "format": "in vivo", "settings": "for Effect on pupil diam. in darkness (mm): pupil diameter after drug, from 7.5 mm before, topical, 5 mg/ml (phentolamine 3.3 mg/ml via soft contact lens for 30 minutes)", "text": "However, only the imidazolines obtain the desired reduction in dilation without causing excessive redness of the eye. In addition, the present invention in an embodiment provides a sub-class of alpha antagonists that can act as a sole active component in an ophthalmic medication to effectively reduce pupil light reflex while providing minimal, if any, redness response upon application thereof to the eye. In an embodiment, the sub-class of alpha antagonists includes alpha 1 selective antagonists, including alpha 1a selective antagonists, such as tamsulosin."}, "human eye [3]": {"tested_on": "human eye", "test": "Effect of phentolamine 0.35% on pupil diameter in dim and bright light (Table 2)", "format": "in vivo"}, "human eye [4]": {"tested_on": "human eye", "test": "Effect of phentolamine eye drops on visual acuity in dim light (Table 3)", "format": "in vivo", "settings": "one line per subject", "text": "The results illustrate the benefit that is derived from reducing pupil diameter by 1 mm or more and/or pupil area by 20% or more in dim light conditions pursuant to an embodiment. In this regard, a significant increase in spherical aberrations is typically found per each one millimeter of increase in pupil size diameter above 5 mm. These aberrations generally increase as a function of severity of the refractive error, particularly increases in the myopic spherical equivalent of refractive error. Coma may increase, as well as other higher order aberrations, as pupil size diameter increases, again especially as refractive error increases. Thus, a reduction in pupil diameter by 1 mm or more and/or pupil area by 20% or more can effectively act to improve vision in dim light conditions. As previously discussed, the present invention contemplates the use of a single active agent, preferably an alpha 1a selective antagonist, that can optimize pupil light reflex while minimizing, if not eliminating, redness. [table]"}, "human eye [5]": {"tested_on": "human eye", "settings": "cited from earlier work"}, "[6]": {"settings": "duration of effect on pupil, 5 mg/ml (phentolamine 3.3 mg/ml via soft contact lens)"}, "[7]": {"settings": "pupil diameter after 3.3 mg/cc, single drop on soft contact lens placed for 30 minutes, one line per subject"}, "[8]": {"settings": "pupil diameter before drug (baseline), one line per subject"}},
  "note": "Where “and” joins values, the source holds several entries; their conditions need not be identical. Equal values may be shown once. Where a name gives a salt, the structure may show the parent alone. Read-outs that look alike come from different tables or passages of the source.",
  "data": [
    {"molecule": "CC(COc1ccccc1)N(CCCl)Cc1ccccc1", "note": "(stereo not drawn) [Phenoxybenzamine]", "values": [
      {"measurement": "Redness / vasodilation of the eye", "setting": "human eye [1]; topical application as only active compound", "value": "induce much more vasodilation and congestion"},
      {"measurement": "Redness / vasodilation of the eye", "setting": "human eye [1]; topical application as only active compound, listed as phenoxybenzamine", "value": "unacceptably high level of redness"},
      {"measurement": "Effectiveness in reducing pupil dilation in dim light", "setting": "human eye [1]", "value": "have not been as effective as phentolamine"},
      {"measurement": "Duration (hrs)", "setting": "human eye [2]; [6]", "value": "≧20 hrs"},
      {"measurement": "Effect on pupil diam. in darkness (mm)", "setting": "human eye [2]", "value": "7.5 -> 5.5 mm"}
    ]},
    {"molecule": "Cc1ccc(N(CC2=NCCN2)c2cccc(O)c2)cc1", "note": "[Phentolamine]", "values": [
      {"measurement": "Redness / vasodilation of the eye", "setting": "human eye [1]; in vivo", "value": "very slight, transient redness"},
      {"measurement": "Duration of effect", "setting": "human eye [1]", "value": "20 to 24", "unit": "h"},
      {"measurement": "Duration of effect", "setting": "human eye [1]; listed as phentolamine", "value": "20 to 24", "unit": "h"},
      {"measurement": "Bright Light Post mm", "setting": "human eye [3]; [7]", "value": "3.0 mm (2×) and 2.5 mm (3×)"},
      {"measurement": "Dim Light Post mm", "setting": "human eye [3]; [7]", "value": "4.0 mm (3×) and 3.0 mm and 3.5 mm"},
      {"measurement": "Bright Light Pre mm", "setting": "human eye [3]; [8]", "value": "4.0 mm and 3.0 mm (3×) and 3.5 mm"},
      {"measurement": "Dim Light Pre mm", "setting": "human eye [3]; [8]", "value": "7.5 mm (2×) and 3.5 mm and 4.0 mm and 7.0 mm"},
      {"measurement": "halos reduced", "setting": "human eye [3]; subject, post drug", "value": "70% reduced; depth"},
      {"measurement": "Duration", "setting": "human eye [2]; [6]", "value": "20 to 40", "unit": "h"},
      {"measurement": "Effect on pupil diam. in darkness (mm)", "setting": "human eye [2]", "value": "7.5 -> 4.0 mm"},
      {"measurement": "Pupil Diameter in Dim Light Post-Drug mm", "setting": "human eye [4]; after phentolamine eye drops", "value": "6.9 mm (2×) and 7.1 mm (2×) and 5.9 mm (2×) and 7.5 mm and 6.5 mm and 7.4 mm"},
      {"measurement": "Pupil Diameter in Dim Light Pre-Drug mm", "setting": "human eye [4]; before drug (baseline)", "value": "7.7 mm and 8.5 mm and 7.9 mm (3×) and 7.8 mm (2×) and 8.2 mm (2×)"},
      {"measurement": "Pupil Diameter Change mm", "setting": "human eye [4]; reduction in dim light, pre minus post", "value": "0.8 mm (2×) and 1.4 mm (2×) and 2.0 mm and 0.9 mm and 0.4 mm and 1.1 mm and 1.9 mm"},
      {"measurement": "Pupil Area Change %", "setting": "human eye [4]; reduction of pupil area in dim light", "value": "20% and 30% and 44% and 22% and 10% and 25% and 32% and 19% and 43%"},
      {"measurement": "Dim Light Contrast Post-Drug", "setting": "human eye [4]; visual acuity after phentolamine eye drops", "value": "20/25 and 20/22 and 20/20 and 20/24 and 20/38 and 20/21 (2×) and 20/32 and 20/50"},
      {"measurement": "Dim Light Contrast Pre-Drug", "setting": "human eye [4]; visual acuity before drug (baseline)", "value": "20/29 (2×) and 20/35 and 20/32 (2×) and 20/63 and 20/38 and 20/40 and 20/53"}
    ]},
    {"molecule": "CC(CCc1ccccc1)NCC(O)c1ccc(O)c(C(N)=O)c1", "note": "(stereo not drawn) [Labetalol]", "values": [
      {"measurement": "Effectiveness in reducing pupil dilation in dim light", "setting": "human eye [1]", "value": "modestly effective"}
    ]},
    {"molecule": "COc1cc2nc(N3CCN(C(=O)c4ccco4)CC3)nc(N)c2cc1OC", "note": "[Prazosin]", "values": [
      {"measurement": "Duration", "setting": "human eye [2]; [6]", "value": "5 to 12", "unit": "h"},
      {"measurement": "Effect on pupil diam. in darkness (mm)", "setting": "human eye [2]", "value": "7.5 -> 6 mm"}
    ]},
    {"molecule": "Cc1ccccc1N1CCN(CCc2nnc3n2CCCC3)CC1", "note": "[Dapiprazole, 5,6,7,8 tetrahydro-3-[2-(4-o,tolyl-1-piperazinyl)ethyl]-8-triazolo[4,3-a]pyridine hydrochloride]", "values": [
      {"measurement": "Redness / vasodilation of the eye", "setting": "human eye [1]; in vivo", "value": "unacceptably high levels of eye redness with severe blood vessel dilation"},
      {"measurement": "Effectiveness in reducing pupil dilation in dim light", "setting": "human eye [1]", "value": "minimal if any clinically significant effect"},
      {"measurement": "Redness and chemosis upon instillation", "setting": "human eye [5]; 0.5% solution", "value": "substantial increased redness and conjunctival chemosis"},
      {"measurement": "Effectiveness in reducing pupil size in dim light", "setting": "human eye [5]; topical, compared to phentolamine and phenoxybenzamine, U.S. Pat. No. 6,515,006", "value": "not as effective"},
      {"measurement": "Duration", "setting": "human eye [2]; [6]", "value": "5 to 12", "unit": "h"},
      {"measurement": "Effect on pupil diam. in darkness (mm)", "setting": "human eye [2]", "value": "7.5 -> 7 mm"}
    ]},
    {"molecule": "Tolamine", "values": [
      {"measurement": "Effectiveness in reducing pupil dilation in dim light", "setting": "human eye [1]", "value": "slight pupillary reduction in dilation in dim light but appears to be less effective than phentolamine"},
      {"measurement": "Duration", "setting": "human eye [2]; [6]", "value": "5 to 12", "unit": "h"},
      {"measurement": "Effect on pupil diam. in darkness (mm)", "setting": "human eye [2]", "value": "7.5 -> 6 mm"}
    ]},
    {"molecule": "CC[C@@H]1C(=O)OC[C@@H]1Cc1cncn1C", "note": "[pilocarpine]", "values": [
      {"measurement": "Duration of miotic effect", "setting": "human eye [5]; in vivo", "value": "only a few hours"},
      {"measurement": "Side effects", "setting": "human eye [5]; in vivo", "value": "brow ache, ciliary muscle contraction and pseudo myopia, excessive dimness when first applied"},
      {"measurement": "Pupil size when first applied", "setting": "human eye [5]; usually", "value": "less than 2 mm"}
    ]}
  ]
}
